Reference: PubChem BioAssay (NCI)
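These data come from cells grown in 96-well plates and exposed to compound for 48 hours at five concentrations. Abbreviation: GI50, concentration required for 50% inhibition of growth. The concentration for full growth arrest is given as TGI.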 Where a SMILES comes first, the peptide text is derived from it. Bridges are numbered along the chain shown (N, C = ends). [ ]: non-standard residue; d: D form. aThr = C[C@H](O)[C@H](N)C(=O)O

Columns and labels:
Assay in all cases: NCI tumour cell line growth inhibition, 48 h
UACC-62 melanoma = tested on: UACC-62 melanoma
U251 CNS = tested on: U251 CNS
SF-295 CNS = tested on: SF-295 CNS
SF-539 CNS = tested on: SF-539 CNS
SK-MEL-28 melanoma = tested on: SK-MEL-28 melanoma
HCT-15 colon = tested on: HCT-15 colon
TK-10 renal = tested on: TK-10 renal
MOLT-4 leukemia = tested on: MOLT-4 leukemia
MCF7 breast = tested on: MCF7 breast
SK-MEL-2 melanoma = tested on: SK-MEL-2 melanoma

COc1ccc(/C=C2\CCC/C(=C\c3ccc(OC)c(OC)c3)C2=O)cc1OC
GI50 (UACC-62 melanoma): 7.63 µM
TGI (UACC-62 melanoma): > 32.5 µM
GI50 (U251 CNS): 1.4 µM
TGI (U251 CNS): > 32.5 µM
GI50 (SF-295 CNS): 1.4 µM
TGI (SF-295 CNS): 21.3 µM
GI50 (SF-539 CNS): 8.55 µM
TGI (SF-539 CNS): > 32.5 µM
GI50 (SK-MEL-28 melanoma): 16.7 µM
TGI (SK-MEL-28 melanoma): > 32.5 µM
GI50 (HCT-15 colon): 4.96 µM
TGI (HCT-15 colon): > 32.5 µM
GI50 (TK-10 renal): 1.4 µM
TGI (TK-10 renal): 7.33 µM
GI50 (MOLT-4 leukemia): 4.74 µM
TGI (MOLT-4 leukemia): > 32.5 µM
GI50 (MCF7 breast): 1.19 µM
TGI (MCF7 breast): > 32.5 µM
GI50 (SK-MEL-2 melanoma): 5.02 µM
TGI (SK-MEL-2 melanoma): 15.2 µM

CNCc1ccc(-c2cc(-c3nc(-c4ccc(S(=O)(=O)C(C)C)cc4)cnc3N)on2)cc1
GI50 (UACC-62 melanoma): 4.77 µM
TGI (UACC-62 melanoma): 26.6 µM
GI50 (U251 CNS): 4.93 µM
TGI (U251 CNS): 21.5 µM
GI50 (SF-295 CNS): 4.5 µM
TGI (SF-295 CNS): 22.9 µM
GI50 (SF-539 CNS): 0.502 µM
TGI (SF-539 CNS): 1.88 µM
GI50 (SK-MEL-28 melanoma): 1.72 µM
TGI (SK-MEL-28 melanoma): 3.21 µM
GI50 (HCT-15 colon): 0.519 µM
TGI (HCT-15 colon): 2.3 µM
GI50 (TK-10 renal): 10.2 µM
TGI (TK-10 renal): 22.3 µM
GI50 (MOLT-4 leukemia): 0.376 µM
TGI (MOLT-4 leukemia): 3.07 µM
GI50 (MCF7 breast): 0.0946 µM
TGI (MCF7 breast): 1.82 µM
GI50 (SK-MEL-2 melanoma): 2 µM
TGI (SK-MEL-2 melanoma): 16.4 µM

Cc1ccc(NC(=O)c2cc(S(=O)(=O)Nc3nnc(-c4ccccc4)c(-c4ccccc4)n3)c(SCc3ccccc3)cc2Cl)cc1
GI50 (UACC-62 melanoma): 16.3 µM
TGI (UACC-62 melanoma): 31.2 µM
GI50 (U251 CNS): 13.7 µM
TGI (U251 CNS): 28.7 µM
GI50 (SF-295 CNS): 19.4 µM
TGI (SF-295 CNS): 42.2 µM
GI50 (SK-MEL-28 melanoma): 29.5 µM
TGI (SK-MEL-28 melanoma): > 100 µM
GI50 (HCT-15 colon): 17.5 µM
TGI (HCT-15 colon): 39.1 µM
GI50 (TK-10 renal): 18.4 µM
TGI (TK-10 renal): 40.6 µM
GI50 (MOLT-4 leukemia): > 100 µM
TGI (MOLT-4 leukemia): > 100 µM
GI50 (MCF7 breast): 24.4 µM
TGI (MCF7 breast): > 100 µM
GI50 (SK-MEL-2 melanoma): 49 µM
TGI (SK-MEL-2 melanoma): > 100 µM

CCN(CC)c1ccc2nc3ccc(=[N+](CC)CC)cc-3oc2c1
GI50 (UACC-62 melanoma): 0.756 µM
TGI (UACC-62 melanoma): 4.33 µM
GI50 (U251 CNS): 0.119 µM
TGI (U251 CNS): > 100 µM
GI50 (SF-295 CNS): 0.28 µM
GI50 (SF-539 CNS): 0.286 µM
TGI (SF-539 CNS): 18.1 µM
GI50 (SK-MEL-28 melanoma): 1.5 µM
TGI (SK-MEL-28 melanoma): 27.7 µM
GI50 (HCT-15 colon): 1.49 µM
TGI (HCT-15 colon): > 64.8 µM
GI50 (TK-10 renal): 0.474 µM
TGI (TK-10 renal): 3.57 µM
GI50 (MOLT-4 leukemia): 0.286 µM
TGI (MOLT-4 leukemia): > 100 µM
GI50 (MCF7 breast): 0.029 µM
TGI (MCF7 breast): 0.276 µM
GI50 (SK-MEL-2 melanoma): 1.36 µM
TGI (SK-MEL-2 melanoma): 3.99 µM

CC(C)C[C@@H]1NC(=O)[C@@H]2CCCN2C(=O)[C@@H]2CCCN2C(=O)[C@H](CC(C)C)NC(=O)[C@H](CO)NC(=O)[C@H](CCCCN)NC(=O)[C@H]([C@H](C)O)NC(=O)[C@@H]2CSSC[C@@H](NC1=O)C(=O)N[C@@H](Cc1ccccc1)C(=O)N1CCC[C@H]1C(=O)N[C@@H](CC(=O)O)C(=O)NCC(=O)N[C@@H](CCCN=C(N)N)C(=O)N2 (cyclo(C[aThr]KSLPPL[dC]FPDGR); disulfide 1-9)
GI50 (UACC-62 melanoma): > 50 µM
TGI (UACC-62 melanoma): > 50 µM
GI50 (U251 CNS): > 50 µM
TGI (U251 CNS): > 50 µM
GI50 (SF-295 CNS): > 50 µM
TGI (SF-295 CNS): > 50 µM
GI50 (SF-539 CNS): > 50 µM
TGI (SF-539 CNS): > 50 µM
GI50 (SK-MEL-28 melanoma): > 50 µM
TGI (SK-MEL-28 melanoma): > 50 µM
GI50 (HCT-15 colon): > 50 µM
TGI (HCT-15 colon): > 50 µM
GI50 (TK-10 renal): > 50 µM
TGI (TK-10 renal): > 50 µM
GI50 (MOLT-4 leukemia): > 50 µM
TGI (MOLT-4 leukemia): > 50 µM
GI50 (MCF7 breast): > 50 µM
TGI (MCF7 breast): > 50 µM
GI50 (SK-MEL-2 melanoma): > 50 µM
TGI (SK-MEL-2 melanoma): > 50 µM

O=C1c2ccccc2C(=O)c2c(NC3CCCCC3)ccc(Nc3ccc(S(=O)(=O)O)cc3)c21
TGI (UACC-62 melanoma): > 100 µM
TGI (U251 CNS): 88.7 µM
TGI (SF-295 CNS): > 100 µM
TGI (SF-539 CNS): > 100 µM
TGI (SK-MEL-28 melanoma): > 100 µM
TGI (HCT-15 colon): > 100 µM
TGI (TK-10 renal): > 100 µM
TGI (MOLT-4 leukemia): > 100 µM
TGI (MCF7 breast): 86.8 µM
TGI (SK-MEL-2 melanoma): 99.8 µM

CCCCCCCCCCCCCCNC(=O)Nc1ccc(Cl)c(Cl)c1
GI50 (UACC-62 melanoma): 3.69 µM
TGI (UACC-62 melanoma): > 100 µM
GI50 (U251 CNS): 3.15 µM
TGI (U251 CNS): > 100 µM
GI50 (SF-295 CNS): 2.6 µM
TGI (SF-295 CNS): > 24.8 µM
GI50 (SF-539 CNS): 4.07 µM
TGI (SF-539 CNS): > 100 µM
GI50 (SK-MEL-28 melanoma): 3.7 µM
TGI (SK-MEL-28 melanoma): > 100 µM
GI50 (HCT-15 colon): 3.21 µM
TGI (HCT-15 colon): > 100 µM
GI50 (TK-10 renal): 2.34 µM
TGI (TK-10 renal): 7.4 µM
GI50 (MOLT-4 leukemia): 1.6 µM
TGI (MOLT-4 leukemia): > 25.1 µM
GI50 (MCF7 breast): 2.86 µM
TGI (MCF7 breast): > 36.1 µM
GI50 (SK-MEL-2 melanoma): 1.93 µM
TGI (SK-MEL-2 melanoma): 5.69 µM

CN(C)c1ccc(-c2cc(-c3ccc(Nc4nc(Nc5ccc(Cl)cc5)nc(Nc5ccc(Cl)cc5)n4)cc3)nc(N)c2C#N)cc1
GI50 (UACC-62 melanoma): 20.4 µM
TGI (UACC-62 melanoma): 92.7 µM
GI50 (U251 CNS): 10.7 µM
TGI (U251 CNS): > 100 µM
GI50 (SF-295 CNS): 13.9 µM
TGI (SF-295 CNS): > 100 µM
GI50 (SF-539 CNS): 19.8 µM
TGI (SF-539 CNS): > 100 µM
GI50 (SK-MEL-28 melanoma): 2.05 µM
TGI (SK-MEL-28 melanoma): 6.35 µM
GI50 (HCT-15 colon): 3.7 µM
TGI (HCT-15 colon): > 100 µM
GI50 (TK-10 renal): 53.8 µM
TGI (TK-10 renal): > 100 µM
GI50 (MOLT-4 leukemia): 2.13 µM
TGI (MOLT-4 leukemia): 20.5 µM
GI50 (MCF7 breast): 2.38 µM
TGI (MCF7 breast): 47.7 µM
GI50 (SK-MEL-2 melanoma): 10.8 µM
TGI (SK-MEL-2 melanoma): 86.7 µM

COCCOC1=C(Cl)C(=O)c2ccccc2C1=O
GI50 (UACC-62 melanoma): 1.89 µM
TGI (UACC-62 melanoma): 5.1 µM
GI50 (U251 CNS): 3.14 µM
TGI (U251 CNS): 10 µM
GI50 (SF-295 CNS): 4.42 µM
TGI (SF-295 CNS): 15.9 µM
GI50 (SF-539 CNS): 2.52 µM
TGI (SF-539 CNS): 5.79 µM
GI50 (SK-MEL-28 melanoma): 3.22 µM
TGI (SK-MEL-28 melanoma): 10.9 µM
GI50 (HCT-15 colon): 2.88 µM
TGI (HCT-15 colon): 9.65 µM
GI50 (TK-10 renal): 2.83 µM
TGI (TK-10 renal): 10.8 µM
GI50 (MOLT-4 leukemia): 1.81 µM
TGI (MOLT-4 leukemia): 42 µM
GI50 (MCF7 breast): 3.06 µM
TGI (MCF7 breast): 14.7 µM
GI50 (SK-MEL-2 melanoma): 2.71 µM
TGI (SK-MEL-2 melanoma): 9.35 µM

COc1cc(OC)c(OC)cc1/C=C/c1nc2ccccc2s1
TGI (U251 CNS): > 100 µM
TGI (SF-295 CNS): > 100 µM
TGI (SF-539 CNS): > 100 µM
TGI (SK-MEL-28 melanoma): > 100 µM
TGI (HCT-15 colon): > 100 µM
TGI (TK-10 renal): > 100 µM
TGI (MOLT-4 leukemia): > 100 µM
TGI (MCF7 breast): > 100 µM
TGI (SK-MEL-2 melanoma): > 100 µM

CCCCS(=O)c1sc2nc(-c3cccs3)cc(-c3ccccc3)c2c1N (configuration not stated)
GI50 (U251 CNS): 18 µM
TGI (U251 CNS): > 100 µM
GI50 (SF-295 CNS): 9.88 µM
TGI (SF-295 CNS): > 100 µM
GI50 (SF-539 CNS): 24.7 µM
TGI (SF-539 CNS): > 100 µM
GI50 (SK-MEL-28 melanoma): 29.2 µM
TGI (SK-MEL-28 melanoma): > 100 µM
GI50 (HCT-15 colon): 9.02 µM
TGI (HCT-15 colon): > 100 µM
GI50 (TK-10 renal): 15 µM
TGI (TK-10 renal): > 84 µM
GI50 (MOLT-4 leukemia): 3.8 µM
TGI (MOLT-4 leukemia): > 62.6 µM
GI50 (MCF7 breast): 10.4 µM
TGI (MCF7 breast): > 100 µM
GI50 (SK-MEL-2 melanoma): 17.3 µM
TGI (SK-MEL-2 melanoma): 47.8 µM

O=C(Nc1ccc(OC(F)(F)Cl)cc1)c1cnc(N2CC[C@@H](O)C2)c(-c2ccn[nH]2)c1
GI50 (UACC-62 melanoma): 5.07 µM
TGI (UACC-62 melanoma): 19.5 µM
GI50 (U251 CNS): 11.8 µM
TGI (U251 CNS): 26.6 µM
GI50 (SF-295 CNS): 10.6 µM
TGI (SF-295 CNS): 26 µM
GI50 (SF-539 CNS): 13.6 µM
TGI (SF-539 CNS): 29.1 µM
GI50 (SK-MEL-28 melanoma): 11.8 µM
TGI (SK-MEL-28 melanoma): 24.9 µM
GI50 (HCT-15 colon): 7.61 µM
TGI (HCT-15 colon): 24.2 µM
GI50 (MOLT-4 leukemia): 9.23 µM
TGI (MOLT-4 leukemia): 31.7 µM
GI50 (MCF7 breast): 10 µM
TGI (MCF7 breast): 32.8 µM
GI50 (SK-MEL-2 melanoma): 12.9 µM
TGI (SK-MEL-2 melanoma): 29.5 µM
